{"source": "patent US20050159427A1", "about": "“N-acylsulfonamide apoptosis promoters” (priority 2003, published 2005)", "key": {"OVCAR-4": {"tested_on": "OVCAR-4", "assay": "Tumor cell viability (TABLE 1)", "format": "cell-based", "details": "Homo sapiens, read-out: EC50 (50% reduction in cell viability); OVCAR-4 (Ovarian); serum-free conditions, 48 hour treatment; mean ± SEM"}, "CCRF-CEM": {"tested_on": "CCRF-CEM", "assay": "CCRF-CEM systemic model of acute lymphoblastoid leukemia", "format": "in vivo, mouse", "description": "CCRF-CEM is a p53-mutant acute lympoblastoid leukemia line of T-cell origin used as an animal (mouse) model of systemic leukemia involving intravenous inoculation of tumor cells. If left untreated, the mice succumb to disease within about 34 days post inoculation, at which time extensive tumor infiltration of spleen, liver, and bone marrow has occured."}, "H146": {"tested_on": "H146", "assay": "H146 small cell lung cancer murine model", "format": "in vivo", "description": "(H146 and SCLC xenograft) from human-derived small cell lung cancer isolated from smokers and nonsmokers, defective for Rb/p53 gene function, and expresseive of moderately high levels of Bcl-2."}, "HOP-62": {"tested_on": "HOP-62", "assay": "Tumor cell viability (TABLE 1)", "format": "cell-based", "details": "Homo sapiens, read-out: EC50 (50% reduction in cell viability); HOP-62 (Non-Small Cell Lung); serum-free conditions, 48 hour treatment; mean ± SEM"}, "OVCAR-3": {"tested_on": "OVCAR-3", "assay": "Tumor cell viability (TABLE 1)", "format": "cell-based", "details": "Homo sapiens, read-out: EC50 (50% reduction in cell viability); OVCAR-3 (Ovarian); serum-free conditions, 48 hour treatment; mean ± SEM"}, "DLD-1": {"tested_on": "DLD-1", "assay": "Tumor cell viability (TABLE 1)", "format": "cell-based", "details": "Homo sapiens, read-out: EC50 (50% reduction in cell viability); DLD-1 (Colorectal); serum-free conditions, 48 hour treatment; mean ± SEM"}, "NCI-H23": {"tested_on": "NCI-H23", "assay": "Tumor cell viability (TABLE 1)", "format": "cell-based", "details": "Homo sapiens, read-out: EC50 (50% reduction in cell viability); NCI-H23 (Non-Small Cell Lung); serum-free conditions, 48 hour treatment; mean ± SEM"}, "IGROV-1": {"tested_on": "IGROV-1", "assay": "Tumor cell viability (TABLE 1)", "format": "cell-based", "details": "Homo sapiens, read-out: EC50 (50% reduction in cell viability); IGROV-1 (Ovarian); serum-free conditions, 48 hour treatment; mean ± SEM"}, "SK-MEL-5": {"tested_on": "SK-MEL-5", "assay": "Tumor cell viability (TABLE 1)", "format": "cell-based", "details": "Homo sapiens, read-out: EC50 (50% reduction in cell viability); SK-MEL-5 (Melanoma); serum-free conditions, 48 hour treatment; mean ± SEM"}, "SF-539": {"tested_on": "SF-539", "assay": "Tumor cell viability (TABLE 1)", "format": "cell-based", "details": "Homo sapiens, read-out: EC50 (50% reduction in cell viability); SF-539 (CNS); serum-free conditions, 48 hour treatment; mean ± SEM"}, "PC3": {"tested_on": "PC3", "assay": "PC3 derived murine model of prostate cancer", "format": "in vivo"}, "BT-549": {"tested_on": "BT-549", "assay": "Tumor cell viability (TABLE 1)", "format": "cell-based", "details": "Homo sapiens, read-out: EC50 (50% reduction in cell viability); BT-549 (Breast); serum-free conditions, 48 hour treatment; mean ± SEM"}, "SN12C": {"tested_on": "SN12C", "assay": "Tumor cell viability (TABLE 1)", "format": "cell-based", "details": "Homo sapiens, read-out: EC50 (50% reduction in cell viability); SN12C (Renal); serum-free conditions, 48 hour treatment; mean ± SEM"}, "SuDHL4": {"tested_on": "SuDHL4", "assay": "SuDHL4 model of B-cell follicular lymphoma", "format": "in vivo"}, "[1]": {"tested_on": "acute lymphoblastoid leukemia, small cell lung cancer, prostate cancer, non-small cell lung cancer, and follicular lymphoma tumors (RS11380, DoHH2 and SuDHL-4)", "details": "follicular lymphoma (RS11380, DoHH2, SuDHL-4)"}, "D54MG": {"tested_on": "D54MG", "assay": "Tumor cell viability (TABLE 1)", "format": "cell-based", "details": "Homo sapiens, read-out: EC50 (50% reduction in cell viability); D54MG (Glioma); serum-free conditions, 48 hour treatment; mean ± SEM"}, "HCT-116": {"tested_on": "HCT-116", "assay": "Tumor cell viability (TABLE 1)", "format": "cell-based", "details": "Homo sapiens, read-out: EC50 (50% reduction in cell viability); HCT-116 (Colorectal); serum-free conditions, 48 hour treatment; mean ± SEM"}, "MDA-MB-436": {"tested_on": "MDA-MB-436", "assay": "Tumor cell viability (TABLE 1)", "format": "cell-based", "details": "Homo sapiens, read-out: EC50 (50% reduction in cell viability); MDA-MB-436 (Breast); serum-free conditions, 48 hour treatment; mean ± SEM"}, "HS-578T": {"tested_on": "HS-578T", "assay": "Tumor cell viability (TABLE 1)", "format": "cell-based", "details": "Homo sapiens, read-out: EC50 (50% reduction in cell viability); HS-578T (Breast); serum-free conditions, 48 hour treatment; mean ± SEM"}, "SK-OV-3": {"tested_on": "SK-OV-3", "assay": "Tumor cell viability (TABLE 1)", "format": "cell-based", "details": "Homo sapiens, read-out: EC50 (50% reduction in cell viability); SK-OV-3 (Ovarian); serum-free conditions, 48 hour treatment; mean ± SEM"}, "LOX IMVI": {"tested_on": "LOX IMVI", "assay": "Tumor cell viability (TABLE 1)", "format": "cell-based", "details": "Homo sapiens, read-out: EC50 (50% reduction in cell viability); LOX IMVI (Melanoma); serum-free conditions, 48 hour treatment; mean ± SEM"}, "MALME-3M": {"tested_on": "MALME-3M", "assay": "Tumor cell viability (TABLE 1)", "format": "cell-based", "details": "Homo sapiens, read-out: EC50 (50% reduction in cell viability); MALME-3M (Melanoma); serum-free conditions, 48 hour treatment; mean ± SEM"}, "KM12": {"tested_on": "KM12", "assay": "Tumor cell viability (TABLE 1)", "format": "cell-based", "details": "Homo sapiens, read-out: EC50 (50% reduction in cell viability); KM12 (Colorectal); serum-free conditions, 48 hour treatment; mean ± SEM"}, "T47D": {"tested_on": "T47D", "assay": "Tumor cell viability (TABLE 1)", "format": "cell-based", "details": "Homo sapiens, read-out: EC50 (50% reduction in cell viability); T47D (Breast); serum-free conditions, 48 hour treatment"}, "[2]": {"tested_on": "human tumor cell lines derived from small cell lung carcinomas and lymphoid malignancies of both T-cell and B-cell origin", "details": "small cell lung carcinoma and T-cell / B-cell lymphoid malignancy cell lines"}}, "note": "“Also recorded” adds a separate entry of the source."}
{"smiles": "CN(C)CC[C@H](CSc1ccccc1)Nc1ccc(S(=O)(=O)NC(=O)c2ccc(N3CCN(Cc4ccccc4-c4ccc(Cl)cc4)CC3)cc2)cc1[N+](=O)[O-]", "note": "[EXAMPLE 2, N-(4-(4-((4′-chloro(1,1′-biphenyl)-2-yl)methyl)piperazin-1-yl)benzoyl)-4-(((1R)-3-(dimethylamino)-1-((phenylsulfanyl)methyl)propyl)amino)-3-nitrobenzenesulfonamide]", "values": [{"measurement": "EC50", "setting": "OVCAR-4", "result": "22 ± 3", "unit": "µM"}, {"measurement": "activity in leukemia model", "setting": "CCRF-CEM; CCRF-CEM T-cell acute lymphoblastoid leukemia model", "result": "significant activity"}, {"measurement": "survival", "setting": "CCRF-CEM; mice, intravenous inoculation of tumor cells", "result": "prolonged survival; also recorded: increased the average survival"}, {"measurement": "tumor infiltration in liver and spleen (histopathology)", "setting": "CCRF-CEM; relative to controls", "result": "lower tumor infiltration"}, {"measurement": "average spleen weight", "setting": "CCRF-CEM; relative to vehicle controls", "result": "significant decrease in average spleen weight"}, {"measurement": "tumor regression", "setting": "H146; H146 model, in some cases tumor disappearance after prolonged therapy", "result": "complete regression of an established tumor"}, {"measurement": "anti-tumor activity", "setting": "H146; H146 murine model, human-derived small cell lung cancer", "result": "demonstrated anti-tumor activity"}, {"measurement": "EC50", "setting": "HOP-62", "result": "6.3 ± 6.7", "unit": "µM"}, {"measurement": "EC50", "setting": "OVCAR-3", "result": "1.9 ± 0.3", "unit": "µM"}, {"measurement": "EC50", "setting": "DLD-1", "result": "0.99 ± 0.45", "unit": "µM"}, {"measurement": "EC50", "setting": "NCI-H23", "result": "7.4 ± 0.6", "unit": "µM"}, {"measurement": "EC50", "setting": "IGROV-1", "result": "1.7 ± 0.6", "unit": "µM"}, {"measurement": "EC50", "setting": "SK-MEL-5", "result": "3.7 ± 0.8", "unit": "µM"}, {"measurement": "EC50", "setting": "SF-539", "result": "4.1 ± 0.6", "unit": "µM"}, {"measurement": "inhibition of tumor growth rate", "setting": "PC3; PC3 derived murine model of prostate cancer", "result": "40-50%"}, {"measurement": "therapeutic utility in prostate cancer model", "setting": "PC3; mouse, in vivo", "result": "Therapeutic utility was also observed"}, {"measurement": "EC50", "setting": "BT-549", "result": "6.5 ± 2.3", "unit": "µM"}, {"measurement": "EC50", "setting": "SN12C", "result": "3.2 ± 0.2", "unit": "µM"}, {"measurement": "activity in follicular lymphoma model", "setting": "SuDHL4", "result": "significant activity"}, {"measurement": "therapeutic utility in xenograft models", "setting": "[1]", "result": "displayed therapeutic utility"}, {"measurement": "EC50", "setting": "D54MG", "result": "3.1 ± 2.5", "unit": "µM"}, {"measurement": "EC50", "setting": "HCT-116", "result": "2.1 ± 1.8", "unit": "µM"}, {"measurement": "EC50", "setting": "MDA-MB-436", "result": "3.9 ± 2.6", "unit": "µM"}, {"measurement": "EC50", "setting": "HS-578T", "result": "7.2 ± 8.2", "unit": "µM"}, {"measurement": "EC50", "setting": "SK-OV-3", "result": "5.6 ± 1", "unit": "µM"}, {"measurement": "EC50", "setting": "LOX IMVI", "result": "1.7 ± 0.4", "unit": "µM"}, {"measurement": "EC50", "setting": "MALME-3M", "result": "1.9 ± 0.8", "unit": "µM"}, {"measurement": "EC50", "setting": "KM12", "result": "1.7 ± 0.2", "unit": "µM"}, {"measurement": "EC50", "setting": "T47D", "result": "> 10", "unit": "µM"}, {"measurement": "therapeutic utility against human tumor cell lines", "setting": "[2]", "result": "displayed therapeutic utility"}]}
